Experimental data taken from patent US8334253B2, “Cosmetic and dermatological formulations of MNTF peptides” (Dermacare Neuroscience Institute, priority 2008, dated 2012).
Ends that are not written are not given here.

What was measured:
[1] = tested on: gamma interferon-induced NO production in epidermal keratinocytes; test: Inhibition of gamma interferon-induced nitric oxide production in keratinocytes (Griess reaction); format: cell-based; details: positive control, aminoguanidine 10 mg/mL plus gamma interferon
Excerpt: The study method chosen is similar to that published in the reference Tsai et al. (Tsai et al, Inhibition of inflammatory nitric oxide production and epidermis damages by Saccharomycopsis Ferment Filtrate. J Dermatol Sci 2006 June 42 (3): 249-57. Laskin, Multifunctional Role of Nitric Oxide in Inflammation, Trends Endocrinol Metab 1994; 5:377-382. Lyons, Emerging Roiles of Nitric Oxide in Inflammation, Hospital Practice, Jul. 15, 1996: 69-86.)
The objective of the study was to investigate the inhibition effect of Pal-hexapeptide (SEQ ID NO: 2, in palmitylated form) on gamma interferon-induced NO production in epidermal keratinocytes in culture.
Anti-inflammatory effect was observed as a reduction of nitric oxide production in keratinocytes. Keratinocytes were incubated 48 hours with gamma-interferon (300 U/ml) alone (as control) or with gamma-interferon together with different concentrations (0.1 μM, 1 μM, 10 μM, 100 μM and 1000 μM) of Pal-hexapeptide. Gamma interferon plus aminoguanidine (10 mg/mL) was used as positive control. The amount of NO production was detected by Griess reaction. Nitric oxide readily oxides to nitrite in aqueous medium, and this reaction was measured as nitrite accumulation in the medium. […] The optical density of the wells were read using a Tibertek Mutiskan (MCC microplate reader at a wavelength of 540 nm, subtracting the absorbance at a reference wavelength of 620 nm.) A printout of the absorbance values was generated by the plate reader, and data were entered into an EXCEL spreadsheet for analysis. The average absorbance and standard deviations were expressed as percent of control absorbances.

[2] = tested on: UVA-bleaching of beta-carotene; test: UVA bleaching of beta-carotene on forearm skin, Color Index by CHROMAMETER; format: in vivo, human; details: human forearm
Procedure: In-vivo method for assessing the protective effects of cosmetic products. Bleaching of carotenoids have been used to evaluate the auto-oxidation activity of natural products. The relative efficacy of scavengers of lipid peroxyl free radicals after application to the skin was assessed by measuring the UVA-bleaching of beta-carotene as a function of the energy exposure.
A CHROMAMETER colorimeter (TM, Minolta Model CR-300) was used to measure changes in color by expressing the color of measured surfaces numerically in L*a*b* color space which is a system recommended by the CIE (Commission Internationale de I'Eclairage) for skin color assessment. In this color space, L* is the luminance and gives the relative brightness from total black (L*=0) to total white (L*=100). The a* value represents the balance between the reds (positive values) and the greens (negative values). The b* value represents the balance between the yellows (positive values) and the blues (negative values). The b* value most closely describes the intensity of the orange color of the β-carotene stain and is in direct correlation with the Color Index, I. The CHROMAMETER provides a means by which oxidative damage caused by free radicals and, conversely, the prevention of oxidation by free radical scavengers, can be measured. Free radical oxidation induced by UVA radiation elicits a bleaching and reduction of color of beta-carotene stain. The bleaching and prevention of bleaching by a test material can be measured by the CHROMAMETER. Bleaching is reported as the change in b* versus UVA Irradiation Energy. It can also be expressed in terms of a Color Index, I, defined as: I=[(bn*−bi*)/(b0*−bi*)]×100 where, bn* is the value of b* measured after n J/cm^2 of irradiation of the area treated with the cosmetic formulation and painted with the β-carotene; b0* is the value of b* after application of the beta-carotene but before irradiation; and bi* is the value of b* before application of the beta-carotene. This index compensates for any effects of skin color on bn* and b0*. Bleaching will cause bn* value and I value (as a percentage) to decrease. Prevention of bleaching will result in higher I values or less reduction in I value when exposed to radiation.
The designated forearm of impaneled subjects was cleansed with a 70% isopropyl alcohol prep pad (Medium, Dynarex) and allowed to dry. Test sites were selected on the volar surface of the designated forearm of each subject, with each test site defined by the open, central area of a self-adhesive ring (Professional ProFoot™ Products, P.P.R. Co, Inc.). The adhesive side of the rings were placed directly on the skin. The rings were used to retain the test material and beta-carotene solution as well as to function as a guide for taking measurements with the CHROMAMETER.
Gel formulations (0.1% Pal-hexapeptide) and (0.1% hexapeptide) were applied to the forearm according to a randomized schedule. Additional sites were treated with a beta-carotene control, a positive control (internal control) and an untreated control. Treatment of the test sites were randomized for each subject.
Prior to application of the test materials or beta-carotene, the initial b* parameter was measured using the CHROMAMETER and recorded for all duplicate test sites of the forearm (Baseline). Approximately 2 mg/cm^2 of each material was applied to the designated test site and spread manually with a finger cot to ensure even distribution. Sites designated as untreated, with or without beta-carotene, remained untreated at this time. The test materials and internal control were allowed to incubate with the skin surface for a period of fifteen (15) minutes. After this incubation period, b* measurements were recorded for all sites (Product Baseline).
A solution of beta-carotene in a mixture of capric and caprylic triglycerides was applied to all treated sites. The b* parameter is again measured and recorded (beta-carotene Baseline). […]

[3] = tested on: cellular peroxide levels in human epidermal keratinocytes; test: Cellular peroxide levels in keratinocytes, DCFH-DA dye and flow cytometry, with and without exogenous H2O2; format: cell-based
Procedure: Hydrogen peroxide can induce damages to skin cells. The dermal protective efficacy of Pal-hexapeptide was assessed by measuring basal peroxide levels in the presence and absence of the compound.
Basal peroxide production, generated by normal cellular metabolism, induce gradual development of low levels of peroxide-specific cellular fluorescence.
Extracellular peroxides (e.g., H2O2 added exogenously) can permeate the cell membrane and cause a rapid and dramatic increase in the peroxide-specific fluorescence of the cell. Cellular peroxides levels can be measured by flow cytometry using the peroxide-specific dye, 2′,7′-dichlorofluorescein diacetate (DCFH-DA). DCFH-DA is initially non-fluorescent and is rapidly concentrated within living cells by an enzyme-dependent process. […] The results of the assay indicates if a test compound functions as an oxidant or an anti-oxidant in a cellular system. If the test article functions as an anti-oxidant, this assay can also be used to determine if the test compound can permeate the cell membrane to quench intracellular peroxide or if it can only affect extracellular peroxide levels (Bass et al., 1983, J. Immunol. 130:1910-1917; Bombick et al., 1992, Toxicol. Meth. 2:255-264).
Human primary keratinocytes, generally on the third passage, were seeded in T75 flasks and cultured until 70-80% confluent. A cell suspension was created and these cells were loaded with the dye DCFH-DA. The pre-incubated cells were exposed to dilutions of the Pal-hexapeptide having the amino acid sequence SEQ ID NO: 2 in two triplicate sets per dilution. One triplicate set was incubated with H2O2 (exogenous source of peroxide), and both sets were stained with Propidium Iodide. Cell viability and peroxide production were determined by fluorescence readings on a FACScan flow cytometer. Peroxide value increases or decreases of 25% or more compared to vehicle control values are considered biologically significant.

| Molecule | % Control (no H2O2), peroxide level ([3]; 0.1 mM, endogenous peroxide) | % Control (with H2O2), peroxide level ([3]; 0.1 mM, exogenous H2O2 added) | % Control (no H2O2), peroxide level ([3]; 1 mM, endogenous peroxide) | % Control (with H2O2), peroxide level ([3]; 1 mM, exogenous H2O2 added) | exogenous peroxide level (as defined by the 25% cutoff), in words ([3]; 1 mM, exogenous H2O2 added) | % Control (no H2O2), peroxide level ([3]; 10 mM, endogenous peroxide) | endogenous peroxide level (as defined by the 25% cutoff), in words ([3]; 10 mM, endogenous peroxide) | % Control (with H2O2), peroxide level ([3]; 10 mM, exogenous H2O2 added) | exogenous peroxide level (as defined by the 25% cutoff), in words ([3]; 10 mM, exogenous H2O2 added) | % Control (no H2O2), peroxide level ([3]; 0.01 mM, endogenous peroxide) | % Control (with H2O2), peroxide level ([3]; 0.01 mM, exogenous H2O2 added) | other results |
| --- | --- | --- | --- | --- | --- | --- | --- | --- | --- | --- | --- | --- |
| N=C(N)NN [AG, aminoguanidine, reference compound] | – | – | – | – | – | – | – | – | – | – | – | nitric oxide production induced by Gamma-interferon, % of the control [1]: 42%; nitric oxide production induced by Gamma-interferon, % of the control ([1]; listed as positive control): 25% |
| CC1=C(/C=C/C(C)=C/C=C/C(C)=C/C=C/C=C(C)/C=C/C=C(C)/C=C/C2=C(C)CCCC2(C)C)C(C)(C)CCC1 [PC (beta-carotene), beta-carotene] | – | – | – | – | – | – | – | – | – | – | – | average Color Index Value ([2]; UVA energy 0 J/cm^2): 100%; average Color Index Value ([2]; UVA energy 1 J/cm^2): 36%; average Color Index Value ([2]; UVA energy 2 J/cm^2): 27%; average Color Index Value ([2]; UVA energy 3 J/cm^2): 23%; average Color Index Value ([2]; UVA energy 4 J/cm^2): 16%; average Color Index Value ([2]; UVA energy 5 J/cm^2): 14%; average Color Index Value ([2]; UVA energy 6 J/cm^2): 13% |
| Cc1c(C)c2c(c(C)c1O)CCC(C)(C(=O)O)O2 (stereo not shown) [Trolox, reference compound] | – | – | – | – | – | – | – | – | – | – | – | peroxide level, % of the control, endogenous peroxide assay without exogenous H2O2 ([3]; positive control, 300 μM, endogenous peroxide): 69.79%; peroxide level, % of the control, assay with exogenous added peroxide ([3]; positive control, 300 μM, exogenous H2O2 added): 24.97% |
| FSR [CS2307] | 98.7% | 95.5% | 60.6% | 62.5% | decreased | −8.5% | decreased | −1.5% | decreased | – | – | endogenous peroxide level (as defined by the 25% cutoff), in words ([3]; 1 mM, endogenous peroxide): decreased; % Control (no H2O2), peroxide level ([3]; 10 mM, endogenous peroxide, listed as MNTF 3-mer): 0%; % Control (with H2O2), peroxide level ([3]; 10 mM, exogenous H2O2 added, listed as MNTF 3-mer): 0% |
| FSRY [CS2308] | 98.6% | 84.5% | 77.2% | 54.9% | decreased | 25.2% | decreased | −5.8% | decreased | – | – | % Control (no H2O2), peroxide level ([3]; 10 mM, endogenous peroxide, listed as MNTF 4-mer): 0%; % Control (with H2O2), peroxide level ([3]; 10 mM, exogenous H2O2 added, listed as MNTF 4-mer): 25.2% |
| FSRYA [CS2309] | 103.3% | 87.2% | 61.6% | 46.2% | decreased | 3.6% | decreased | −5.9% | decreased | – | – | endogenous peroxide level (as defined by the 25% cutoff), in words ([3]; 1 mM, endogenous peroxide): decreased; % Control (with H2O2), peroxide level ([3]; 10 mM, exogenous H2O2 added, listed as MNTF 5-mer): 0% |
| FSRYAR [GM602, FSRYAR] | 94.9% | 92.9% | 73.6% | 56.0% | – | 25.0% | – | 14.3% | – | – | – | Cell viability, expressed as % of non-viable, treated versus not treated cells ([3]; keratinocytes, Propidium Iodide staining): about the same |
| Pal 3 mer: palmitylated form of the MNTF 3 mer (SEQ ID NO:9) (Phe-Ser-Arg; also: palmitoyl group) | 98.7% | 96.1% | 101.1% | 71.9% | decreased | – | – | – | – | 99.4% | 101.0% | – |
| Pal 4mer: palmitylated form of the MNTF 4 mer (SEQ ID NO:11) (FSRY; also: palmitoyl group) | 96.8% | 96.6% | 81.8% | 67.2% | decreased | – | – | – | – | 97.2% | 102.4% | – |
| Pal 5 mer: palmitylated form of the MNTF 5 mer (SEQ ID NO:17) (FSRYA; also: palmitoyl group) | 92.8% | 96.0% | 83.6% | 62.2% | decreased | – | – | – | – | 95.3% | 98.6% | – |
